Laboratory results from ChEMBL document CHEMBL5154740, “Novel Aurora A and Protein Kinase C (α, β1, β2, and θ) Multitarget Inhibitors: Impact of Selenium Atoms on the Potency and Selectivity” (J Med Chem, 2022).

Columns and labels:
[1] = biological target: T1, Protein kinase C theta type (Homo sapiens, UniProt Q04759); test: Inhibition of PKCtheta (unknown origin) at 50 nM by Z'LYTE screening method relative to control
Target sequence in this assay (Q04759 whole entry, looked up): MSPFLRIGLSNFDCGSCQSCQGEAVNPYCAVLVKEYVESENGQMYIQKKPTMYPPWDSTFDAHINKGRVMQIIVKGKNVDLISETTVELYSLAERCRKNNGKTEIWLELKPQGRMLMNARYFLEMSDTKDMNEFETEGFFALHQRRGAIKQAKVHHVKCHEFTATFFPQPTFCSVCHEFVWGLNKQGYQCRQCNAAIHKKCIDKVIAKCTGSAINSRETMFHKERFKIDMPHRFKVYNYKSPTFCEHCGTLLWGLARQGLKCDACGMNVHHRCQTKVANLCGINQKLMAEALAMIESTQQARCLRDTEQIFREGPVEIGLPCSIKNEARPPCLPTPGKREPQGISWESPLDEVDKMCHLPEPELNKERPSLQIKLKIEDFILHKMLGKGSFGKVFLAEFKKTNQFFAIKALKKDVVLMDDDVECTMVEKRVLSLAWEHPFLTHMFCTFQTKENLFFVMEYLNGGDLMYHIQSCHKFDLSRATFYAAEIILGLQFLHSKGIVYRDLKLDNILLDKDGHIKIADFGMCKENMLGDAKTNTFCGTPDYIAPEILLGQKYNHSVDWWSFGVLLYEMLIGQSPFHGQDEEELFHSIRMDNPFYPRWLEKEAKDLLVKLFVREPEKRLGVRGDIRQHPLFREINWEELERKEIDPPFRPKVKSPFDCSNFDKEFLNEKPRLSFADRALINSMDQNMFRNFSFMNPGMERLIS

[2] = biological target: T2, Aurora kinase A (Homo sapiens) (UniProt O14965); test: Inhibition of AURA (unknown origin) at 50 nM by Z'LYTE screening method relative to control
T2 sequence (whole entry): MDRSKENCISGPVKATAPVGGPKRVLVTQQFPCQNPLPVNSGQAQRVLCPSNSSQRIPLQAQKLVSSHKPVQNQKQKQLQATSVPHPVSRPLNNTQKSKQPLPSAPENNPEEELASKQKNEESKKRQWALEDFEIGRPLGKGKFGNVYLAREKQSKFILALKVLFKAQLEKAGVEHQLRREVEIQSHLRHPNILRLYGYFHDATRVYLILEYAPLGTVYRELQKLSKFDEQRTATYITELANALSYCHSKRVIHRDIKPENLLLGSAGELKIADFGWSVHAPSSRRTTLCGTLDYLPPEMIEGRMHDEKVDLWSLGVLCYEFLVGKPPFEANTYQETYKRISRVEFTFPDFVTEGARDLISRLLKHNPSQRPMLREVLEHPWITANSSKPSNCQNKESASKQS

MDA-MB-231 = test: Cytotoxicity against human MDA-MB-231/M cells assessed as reduction in cell viability incubated for 96 hrs by MTT assay; type: functional, cell-based; conditions: MDA-MB-231, 96 h
[3] = biological target: Aurora kinase B (Homo sapiens) (UniProt Q96GD4); test: Inhibition of AURB (unknown origin) at 50 nM by Z'LYTE screening method relative to control
[4] = biological target: Protein kinase C alpha type (Homo sapiens) (UniProt P17252); test: Inhibition of PKCalpha (unknown origin) at 50 nM by Z'LYTE screening method relative to control
[5] = biological target: Protein kinase C beta type (Homo sapiens) (UniProt P05771); test: Inhibition of PKCbeta2 (unknown origin) at 50 nM by Z'LYTE screening method relative to control
[6] = biological target: Protein kinase C beta type (Homo sapiens) (UniProt P05771); test: Inhibition of PKCbeta1 (unknown origin) at 50 nM by Z'LYTE screening method relative to control
4T1 = test: Cytotoxicity against mouse 4T1 cells assessed as reduction in cell viability incubated for 96 hrs by MTT assay; type: functional, cell-based; conditions: 4T1, 96 h
[7] = biological target: Protein kinase C beta type (Homo sapiens) (UniProt P05771); test: Inhibition of PKCbeta1 (unknown origin) by Z'LYTE screening method relative to control; conditions: concentration not given here
[8] = biological target: Protein kinase C beta type (Homo sapiens) (UniProt P05771); test: Inhibition of PKCbeta2 (unknown origin) by Z'LYTE screening method relative to control; conditions: concentration not given here
[9] = biological target: Serine/threonine-protein kinase D3 (Homo sapiens, UniProt O94806); test: Inhibition of PKCnu (unknown origin) by IMAP kinase assay
[10] = biological target: T3, Protein kinase C epsilon type (Homo sapiens) (UniProt Q02156); test: Inhibition of PKCepsilon (unknown origin) by Z'LYTE screening method relative to control; conditions: concentration not given here
T3 sequence (whole entry): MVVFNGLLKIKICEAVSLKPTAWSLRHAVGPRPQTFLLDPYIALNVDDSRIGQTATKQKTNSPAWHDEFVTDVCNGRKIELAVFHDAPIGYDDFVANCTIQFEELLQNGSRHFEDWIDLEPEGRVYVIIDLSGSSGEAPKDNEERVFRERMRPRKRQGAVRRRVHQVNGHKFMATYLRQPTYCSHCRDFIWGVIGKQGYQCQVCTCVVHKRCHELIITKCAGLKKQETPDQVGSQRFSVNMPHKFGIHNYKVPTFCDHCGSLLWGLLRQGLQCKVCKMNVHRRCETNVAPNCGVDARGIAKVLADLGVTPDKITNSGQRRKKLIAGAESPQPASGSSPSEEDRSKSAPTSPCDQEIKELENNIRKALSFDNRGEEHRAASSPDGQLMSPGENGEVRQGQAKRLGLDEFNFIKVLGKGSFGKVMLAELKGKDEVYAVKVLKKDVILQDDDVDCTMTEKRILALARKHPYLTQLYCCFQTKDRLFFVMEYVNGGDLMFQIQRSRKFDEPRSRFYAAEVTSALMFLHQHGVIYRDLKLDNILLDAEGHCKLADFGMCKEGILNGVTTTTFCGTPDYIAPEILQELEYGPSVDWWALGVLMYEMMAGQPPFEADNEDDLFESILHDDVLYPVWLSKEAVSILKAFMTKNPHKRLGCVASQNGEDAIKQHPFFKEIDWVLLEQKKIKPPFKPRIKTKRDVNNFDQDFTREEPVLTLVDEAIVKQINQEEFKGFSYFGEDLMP

[11] = biological target: T4, Serine/threonine-protein kinase D1 (Homo sapiens) (UniProt Q15139); test: Inhibition of PKCmu (unknown origin) by Z'LYTE screening method relative to control; conditions: concentration not given here
T4 sequence (whole entry): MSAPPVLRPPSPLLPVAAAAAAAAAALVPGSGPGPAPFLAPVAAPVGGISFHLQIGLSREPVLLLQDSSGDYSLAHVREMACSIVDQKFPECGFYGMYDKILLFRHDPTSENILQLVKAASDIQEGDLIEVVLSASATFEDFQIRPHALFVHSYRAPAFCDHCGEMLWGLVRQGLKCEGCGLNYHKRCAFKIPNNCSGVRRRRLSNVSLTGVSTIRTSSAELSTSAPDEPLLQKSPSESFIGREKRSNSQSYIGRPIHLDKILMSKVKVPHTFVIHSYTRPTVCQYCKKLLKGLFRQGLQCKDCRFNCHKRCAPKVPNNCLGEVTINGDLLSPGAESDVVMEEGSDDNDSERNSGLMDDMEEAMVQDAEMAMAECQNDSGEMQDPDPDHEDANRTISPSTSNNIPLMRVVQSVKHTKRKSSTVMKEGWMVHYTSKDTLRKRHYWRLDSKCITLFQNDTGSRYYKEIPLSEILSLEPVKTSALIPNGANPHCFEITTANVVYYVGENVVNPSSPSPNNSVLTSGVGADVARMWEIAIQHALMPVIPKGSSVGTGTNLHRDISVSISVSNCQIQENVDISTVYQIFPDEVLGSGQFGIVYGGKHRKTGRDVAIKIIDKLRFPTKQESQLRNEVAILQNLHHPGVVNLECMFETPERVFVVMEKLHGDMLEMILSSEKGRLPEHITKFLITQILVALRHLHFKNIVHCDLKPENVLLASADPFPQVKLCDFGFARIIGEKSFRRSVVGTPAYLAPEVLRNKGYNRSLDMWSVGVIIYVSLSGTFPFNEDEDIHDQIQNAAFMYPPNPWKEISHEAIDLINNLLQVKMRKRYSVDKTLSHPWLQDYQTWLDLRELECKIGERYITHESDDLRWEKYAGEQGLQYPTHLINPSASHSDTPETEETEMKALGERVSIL

[12] = biological target: T5, Serine/threonine-protein kinase D3 (Homo sapiens) (UniProt O94806); test: Inhibition of PKCnu (unknown origin) by Z'LYTE screening method relative to control; conditions: concentration not given here
T5 sequence (whole entry): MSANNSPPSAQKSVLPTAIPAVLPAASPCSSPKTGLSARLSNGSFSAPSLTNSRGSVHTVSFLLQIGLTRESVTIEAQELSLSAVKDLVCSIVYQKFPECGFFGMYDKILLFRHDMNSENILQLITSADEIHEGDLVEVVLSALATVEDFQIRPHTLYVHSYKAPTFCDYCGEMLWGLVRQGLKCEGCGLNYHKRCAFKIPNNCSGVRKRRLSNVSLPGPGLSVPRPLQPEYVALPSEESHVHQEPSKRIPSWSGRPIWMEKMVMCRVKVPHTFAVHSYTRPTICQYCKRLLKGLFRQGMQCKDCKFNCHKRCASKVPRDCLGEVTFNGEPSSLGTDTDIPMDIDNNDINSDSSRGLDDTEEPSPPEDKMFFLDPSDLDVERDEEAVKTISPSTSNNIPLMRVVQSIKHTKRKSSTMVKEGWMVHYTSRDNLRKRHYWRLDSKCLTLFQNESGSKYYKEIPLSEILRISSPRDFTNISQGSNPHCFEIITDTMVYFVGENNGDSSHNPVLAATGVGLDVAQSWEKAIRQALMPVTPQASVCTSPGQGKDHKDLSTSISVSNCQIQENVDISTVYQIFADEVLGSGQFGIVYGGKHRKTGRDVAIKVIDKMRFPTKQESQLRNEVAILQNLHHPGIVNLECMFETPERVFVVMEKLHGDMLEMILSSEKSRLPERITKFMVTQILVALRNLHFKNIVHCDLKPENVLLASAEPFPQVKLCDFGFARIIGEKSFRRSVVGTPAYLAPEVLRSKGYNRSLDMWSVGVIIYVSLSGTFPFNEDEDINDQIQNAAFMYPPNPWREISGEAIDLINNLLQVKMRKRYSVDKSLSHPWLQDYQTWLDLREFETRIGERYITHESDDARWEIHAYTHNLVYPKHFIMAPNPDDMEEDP

[13] = biological target: T1, Protein kinase C theta type; test: Inhibition of full length human PKCtheta using 5-FAM-RFARKGSLRQKNV-OH peptide substrate incubated for 30 mins by IMAP kinase assay
Target sequence in this assay (Q04759 whole entry): as the sequence (Q04759 whole entry, looked up) above

[14] = biological target: Protein kinase C epsilon type (Homo sapiens, UniProt Q02156); test: Inhibition of PKCepsilon (unknown origin) by IMAP kinase assay
[15] = biological target: Protein kinase C alpha type (Homo sapiens) (UniProt P17252); test: Inhibition of PKCalpha (unknown origin) by Z'LYTE screening method relative to control; conditions: concentration not given here
[16] = biological target: T6, Protein kinase C zeta type (Homo sapiens) (UniProt Q05513); test: Inhibition of PKCzeta (unknown origin) by Z'LYTE screening method relative to control; conditions: concentration not given here
T6 sequence (whole entry): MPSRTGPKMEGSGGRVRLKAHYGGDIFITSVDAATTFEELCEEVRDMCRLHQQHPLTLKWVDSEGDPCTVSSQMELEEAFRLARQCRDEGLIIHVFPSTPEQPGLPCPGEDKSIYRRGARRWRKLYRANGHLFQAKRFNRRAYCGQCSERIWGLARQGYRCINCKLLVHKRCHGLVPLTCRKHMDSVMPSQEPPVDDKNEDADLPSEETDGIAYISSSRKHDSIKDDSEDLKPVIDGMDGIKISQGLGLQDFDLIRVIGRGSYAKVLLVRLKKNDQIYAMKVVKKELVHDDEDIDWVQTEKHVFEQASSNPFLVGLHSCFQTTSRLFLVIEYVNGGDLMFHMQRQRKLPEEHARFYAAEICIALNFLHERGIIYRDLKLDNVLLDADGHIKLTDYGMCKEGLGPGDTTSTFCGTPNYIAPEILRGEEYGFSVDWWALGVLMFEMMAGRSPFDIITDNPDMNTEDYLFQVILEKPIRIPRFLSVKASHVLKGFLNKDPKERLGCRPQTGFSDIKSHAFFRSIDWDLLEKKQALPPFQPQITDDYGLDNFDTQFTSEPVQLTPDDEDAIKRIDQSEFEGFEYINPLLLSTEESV

Aurora kinase C = Aurora kinase C (Homo sapiens, UniProt Q9UQB9); test: Inhibition of AURC (unknown origin)
[17] = biological target: Protein kinase C eta type (Homo sapiens, UniProt P24723); test: Inhibition of PKCeta (unknown origin) by IMAP kinase assay
[18] = biological target: Proto-oncogene tyrosine-protein kinase receptor Ret (Homo sapiens) (UniProt P07949); test: Inhibition of RET (unknown origin) by Z'LYTE screening method relative to control; conditions: concentration not given here
Proto-oncogene tyrosine-protein kinase receptor Ret (Homo sapiens), sequence (P07949 whole entry): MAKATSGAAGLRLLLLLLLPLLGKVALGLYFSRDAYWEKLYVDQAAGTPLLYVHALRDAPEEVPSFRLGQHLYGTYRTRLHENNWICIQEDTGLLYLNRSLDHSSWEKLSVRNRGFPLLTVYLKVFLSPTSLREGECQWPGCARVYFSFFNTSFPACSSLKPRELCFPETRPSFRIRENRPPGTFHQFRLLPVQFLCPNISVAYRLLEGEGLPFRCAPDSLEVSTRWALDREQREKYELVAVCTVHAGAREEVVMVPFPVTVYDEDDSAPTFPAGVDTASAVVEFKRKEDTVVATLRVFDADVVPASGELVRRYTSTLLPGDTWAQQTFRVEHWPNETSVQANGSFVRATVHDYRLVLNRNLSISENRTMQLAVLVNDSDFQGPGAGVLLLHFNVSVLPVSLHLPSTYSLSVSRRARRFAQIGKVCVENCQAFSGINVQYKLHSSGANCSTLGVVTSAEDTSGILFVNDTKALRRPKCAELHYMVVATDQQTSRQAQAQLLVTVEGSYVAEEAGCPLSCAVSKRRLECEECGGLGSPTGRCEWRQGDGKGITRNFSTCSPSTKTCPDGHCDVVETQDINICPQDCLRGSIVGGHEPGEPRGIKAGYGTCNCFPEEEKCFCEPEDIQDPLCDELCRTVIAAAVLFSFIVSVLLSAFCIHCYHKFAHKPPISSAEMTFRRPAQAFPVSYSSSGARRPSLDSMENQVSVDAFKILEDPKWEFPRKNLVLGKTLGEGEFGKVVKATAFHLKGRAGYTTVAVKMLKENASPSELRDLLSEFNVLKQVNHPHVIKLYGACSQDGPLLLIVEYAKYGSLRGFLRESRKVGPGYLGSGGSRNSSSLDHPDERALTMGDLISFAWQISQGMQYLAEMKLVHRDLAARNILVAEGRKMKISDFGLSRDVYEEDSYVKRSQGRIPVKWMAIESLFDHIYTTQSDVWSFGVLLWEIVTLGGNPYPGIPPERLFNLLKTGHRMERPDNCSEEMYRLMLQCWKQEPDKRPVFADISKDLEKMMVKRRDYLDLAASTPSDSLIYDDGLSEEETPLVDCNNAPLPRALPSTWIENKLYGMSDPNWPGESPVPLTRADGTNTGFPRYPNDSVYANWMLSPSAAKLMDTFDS

Protein kinase C beta type (Homo sapiens), sequence (P05771 2-671 limits assumed): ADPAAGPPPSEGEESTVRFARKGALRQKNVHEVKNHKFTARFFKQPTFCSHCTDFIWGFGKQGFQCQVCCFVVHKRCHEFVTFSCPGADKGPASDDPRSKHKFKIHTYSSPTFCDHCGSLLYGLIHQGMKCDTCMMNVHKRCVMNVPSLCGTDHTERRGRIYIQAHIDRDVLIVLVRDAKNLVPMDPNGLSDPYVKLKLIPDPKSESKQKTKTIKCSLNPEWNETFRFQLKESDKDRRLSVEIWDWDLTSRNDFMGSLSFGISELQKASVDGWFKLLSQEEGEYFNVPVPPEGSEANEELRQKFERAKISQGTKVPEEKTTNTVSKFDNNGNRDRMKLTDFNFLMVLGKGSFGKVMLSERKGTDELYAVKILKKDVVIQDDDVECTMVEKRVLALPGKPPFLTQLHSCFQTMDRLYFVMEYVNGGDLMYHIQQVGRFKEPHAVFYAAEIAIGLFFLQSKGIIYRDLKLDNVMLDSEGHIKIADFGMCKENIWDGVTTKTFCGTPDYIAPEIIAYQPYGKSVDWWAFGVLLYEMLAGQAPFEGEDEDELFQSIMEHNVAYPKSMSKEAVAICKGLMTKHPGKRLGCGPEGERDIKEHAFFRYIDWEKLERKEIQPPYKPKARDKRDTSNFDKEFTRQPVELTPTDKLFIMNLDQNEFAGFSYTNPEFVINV
Aurora kinase B (Homo sapiens), sequence (Q96GD4 whole entry): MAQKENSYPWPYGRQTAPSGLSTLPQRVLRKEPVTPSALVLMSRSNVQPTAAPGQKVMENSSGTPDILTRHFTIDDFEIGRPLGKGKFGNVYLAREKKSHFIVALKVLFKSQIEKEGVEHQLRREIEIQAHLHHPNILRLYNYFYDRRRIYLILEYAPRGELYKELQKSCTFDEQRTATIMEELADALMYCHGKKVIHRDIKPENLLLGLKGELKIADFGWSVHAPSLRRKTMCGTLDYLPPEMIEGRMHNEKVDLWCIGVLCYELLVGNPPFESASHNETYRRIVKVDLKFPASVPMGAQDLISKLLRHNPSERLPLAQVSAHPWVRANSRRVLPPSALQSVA
Aurora kinase C, sequence (Q9UQB9 whole entry): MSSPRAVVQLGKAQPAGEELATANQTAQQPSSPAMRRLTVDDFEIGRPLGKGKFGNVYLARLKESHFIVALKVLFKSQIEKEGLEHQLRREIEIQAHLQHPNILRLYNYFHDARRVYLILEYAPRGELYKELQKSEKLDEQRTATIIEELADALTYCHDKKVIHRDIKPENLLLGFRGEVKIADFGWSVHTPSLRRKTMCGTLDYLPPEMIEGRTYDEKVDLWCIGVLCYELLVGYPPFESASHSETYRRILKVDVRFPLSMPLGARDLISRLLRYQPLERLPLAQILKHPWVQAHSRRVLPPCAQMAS
Protein kinase C eta type, sequence (P24723 whole entry): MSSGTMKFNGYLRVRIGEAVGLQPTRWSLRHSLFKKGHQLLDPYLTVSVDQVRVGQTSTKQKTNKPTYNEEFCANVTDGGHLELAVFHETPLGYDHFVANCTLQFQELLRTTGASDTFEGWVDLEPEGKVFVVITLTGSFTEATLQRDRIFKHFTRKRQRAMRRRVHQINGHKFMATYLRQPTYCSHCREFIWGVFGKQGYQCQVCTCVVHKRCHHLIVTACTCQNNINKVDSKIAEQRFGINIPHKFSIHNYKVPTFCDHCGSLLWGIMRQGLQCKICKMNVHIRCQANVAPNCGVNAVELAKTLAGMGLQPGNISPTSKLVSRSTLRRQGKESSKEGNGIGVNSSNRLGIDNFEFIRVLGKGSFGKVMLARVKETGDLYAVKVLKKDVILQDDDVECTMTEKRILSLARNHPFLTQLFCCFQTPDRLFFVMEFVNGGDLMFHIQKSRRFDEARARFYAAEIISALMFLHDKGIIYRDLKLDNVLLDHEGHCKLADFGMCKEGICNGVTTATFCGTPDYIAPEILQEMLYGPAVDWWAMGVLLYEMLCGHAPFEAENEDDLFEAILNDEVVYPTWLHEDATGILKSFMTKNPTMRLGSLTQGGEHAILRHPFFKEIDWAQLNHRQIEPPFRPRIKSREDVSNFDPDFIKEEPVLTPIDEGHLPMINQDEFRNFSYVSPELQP

Row | SMILES | inhibition [1] [%] | inhibition [2] [%] | inhibition [3] [%] | inhibition [4] [%] | inhibition [5] [%] | inhibition [6] [%] | inhibition [7] [%] | inhibition [8] [%] | inhibition [15] [%] | IC50 (MDA-MB-231) [nM] | IC50 (4T1) [nM] | other results
1 | O=c1c2ccccc2sn1-c1nc(NC2CCCC2)c2nc[nH]c2n1 | 60 | 58 | 7 | 65 | 13 | 40 | – | – | – | 29200 | 25600 | –
2 | O=C(Nc1cccc(Cl)c1)Nc1ncc(CCNc2ncnc3ccsc23)s1 [SNS-314] | – | – | – | – | – | – | – | – | – | – | – | IC50 (Aurora kinase C): 3 nM
3 | O=C(N[C@@H]1CNCCC[C@H]1OC(=O)c1cc(O)c(C(=O)c2c(O)cccc2C(=O)O)c(O)c1)c1ccc(O)cc1 [BALANOL] | – | – | – | – | – | – | – | – | – | – | – | IC50 [17]: 4 nM
4 | O=c1c2ccccc2sn1-c1nc(NC2CCSC2)c2nc[nH]c2n1 (configuration not stated) | 97 | 69 | 7 | 92 | 81 | 85 | – | – | – | 10300 | 12200 | –

The next lines start with results.

Row | inhibition [1] [%] | inhibition [2] [%] | inhibition [3] [%] | inhibition [4] [%] | inhibition [5] [%] | inhibition [6] [%] | inhibition [7] [%] | inhibition [8] [%] | inhibition [15] [%] | SMILES | IC50 (MDA-MB-231) [nM] | IC50 (4T1) [nM] | other results
5 | – | – | – | – | – | – | 98 | 98 | 100 | CN1CCN(c2nc(C3=C(c4c[nH]c5ccccc45)C(=O)NC3=O)c3ccccc3n2)CC1 [SOTRASTAURIN] | – | – | IC50 [9]: 2.1 nM; inhibition [10]: 76%; inhibition [11]: 92%; inhibition [12]: 76%; IC50 [13]: 0.22 nM; IC50 [14]: 3.2 nM; inhibition [16]: 80%
6 | – | – | – | – | – | – | 6 | 2 | 8 | Cc1cc(Nc2cc(N3CCN(C)CC3)nc(Sc3ccc(NC(=O)C4CC4)cc3)n2)n[nH]1 | – | – | inhibition [18]: 62%
